We go through 45 molecules from US20070244155A1 (AMGEN INC., priority 2006, published 2007).

Structures are written as SMILES.

The target of the test is T1, human GPR40 (Homo sapiens, UniProt O14842).
T1 construct: expressed in transfected cells; host or cells: CHO cells
T1 sequence (O14842 whole entry): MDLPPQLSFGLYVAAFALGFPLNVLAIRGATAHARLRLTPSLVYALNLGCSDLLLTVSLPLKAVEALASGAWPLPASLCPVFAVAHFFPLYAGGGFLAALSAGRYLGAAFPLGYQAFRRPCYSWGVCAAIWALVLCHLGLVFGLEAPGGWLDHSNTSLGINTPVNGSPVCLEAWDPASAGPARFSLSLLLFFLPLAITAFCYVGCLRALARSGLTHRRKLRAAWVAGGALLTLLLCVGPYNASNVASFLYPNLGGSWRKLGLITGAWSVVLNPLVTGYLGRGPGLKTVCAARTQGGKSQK
Kind of test: Cell-based aequorin assay using human GPR40. As to conditions: CHO cells transfected with GPR40 and aequorin expression vectors; aequorin luminescence; activation of human GPR40; read-out: Relative EC50. Here is the method:
A cell-based aequorin assay may be employed to characterize the modulatory activity of compounds on the GPR40 signaling pathway. In an exemplary assay, CHO cells are transfected in a 15 cm plated containing 14 million cells with 5 μg of GPR40 expression vector and 5 μg of Aequorin expression vector (Euroscreen) using Lipofectamine 2000 (Invitrogen). After 17-24 hours post-transfection, cells are washed with phosphate buffered saline (PBS) and detached from the tissue culture dish with 2 mL of trypsin (0.25%(w/v)). Trypsinization is halted with 28 mL of Hanks Buffered Salt Solution containing 20 mM Hepes (H/HBSS) and 0.01% fatty acid-free bovine serum albumin (BSA) or 0.625% fatty acid-free human serum albumin (HSA). Coelantrazine is added to 1 ug/mL and the cells are incubated for 2 hours at room temperature. Cells are gently mixed every 15 minutes. Compounds are dissolved in dimethyl sulfoxide for preparation of 10 mM stock solutions. Compounds are diluted in H/HBSS containing either 0.01% BSA or 0.625% HSA. Serial dilutions of the test compounds are prepared to determine dose response. Aequorin luminescence measurements are made using an EG&G Berthold 96-well luminometer and the response is measured over a 20 second interval after cells and compounds are mixed. The area-under-curve from 2-20 seconds is plotted to determine dose response. The EC50 (effective concentration to reach 50% maximal response) is determined from the dose response plot. Table 1 includes representative data (EC50 values) obtained for exemplary compounds of the invention for the relative activation of human GPR40. […] Therefore, in some embodiments, the invention provides any of the compounds listed in Table 1 individually or as members of a group and pharmaceutically acceptable salts, esters, solvates, tautomers, stereoisomers, and/or prodrugs thereof.
As usually defined, the EC50 is the concentration at which the effect is half-maximal. Turning to `CC1CCc2cc(OCc3cccc(-c4ccc(C(F)(F)F)cc4)c3)ccc2C1CC(=O)O` (mixture of isomers) [Example 22], the EC50 is 1 to 10 µM. The result for `CCCCOc1ccc(C)cc1-c1ccc(COc2ccc3c(c2)CCC(C)C3CC(=O)O)cc1` (mixture of isomers) [Example 23] reads 1 to 10 µM; that for `Cc1ccc(-c2nc(C)c(COc3ccc4c(c3)CCC(C)C4CC(=O)O)s2)cc1` (mixture of isomers) [Example 24], 1 to 10 µM; that for `CCCCOc1ccc(C)cc1-c1ccc(COc2ccc3c(c2)CC(C)C3CC(=O)O)cc1` (mixture of isomers) [Example 25], 1 to 10 µM.

Consider `CC1Cc2cc(OCc3cccc(-c4ccc(C(F)(F)F)cc4)c3)ccc2C1CC(=O)O` (mixture of isomers) [Example 26], for which the 50% effective concentration (EC50) lay in the range of 1 to 10 µM. With `CCOc1ccccc1-c1ccc(COc2ccc3c(c2)CC(C)C3CC(=O)O)cc1` (mixture of isomers) [Example 27] the figure was 1 to 10 µM; with `Cc1ccc(-c2nc(C)c(COc3ccc4c(c3)CC(C)C4CC(=O)O)s2)cc1` (mixture of isomers) [Example 28], 1 to 10 µM; with `CCCCOc1ccc(C)cc1-c1ccc(COc2ccc3c(c2)CCCC3CC(=O)O)cc1` (racemic) [Example 1, (R/S)-[6-(2′-Butoxy-5′-methyl-biphenyl-4-ylmethoxy)-1,2,3,4-tetrahydro-naphthalen-1-yl]-acetic acid], 0.1 to 1 µM. Turning to `CCCCOc1ccc(C)cc1-c1ccc(COc2ccc3c(c2)CCC3CC(=O)O)cc1` (racemic) [Example 11, (R/S)-[5-(2′-Butoxy-5′-methyl-biphenyl-4-ylmethoxy)-indan-1-yl]-acetic acid], the EC50 was 0.1 to 1 µM.

Turning to `CCCCOc1ccc(C)cc1-c1ccc(COc2ccc3c(c2)CCC(C(=O)O)C3)cc1` (racemic) [Example 29, (R/S)-6-(2′-Butoxy-5′-methyl-biphenyl-4-ylmethoxy)-1,2,3,4-tetrahydro-naphthalene-2-carboxylic acid], the half-maximal effective concentration (EC50) was 0.1 to 1 µM. For the molecule `C=C1COc2cc(OCc3ccc(-c4cc(C)ccc4OCCCC)cc3)ccc2C1CC(=O)O` (racemic) [Example 35], the half-maximal effective concentration (EC50) fell in the range of 0.1 to 1 µM. Regarding `CCCCOc1ccc(C)cc1-c1ccc(COc2ccc3c(c2)OCC(=C(C)C)C3CC(=O)O)cc1` (racemic) [Example 39], the EC50 was in the range of 0.1 to 1 µM.

As for `CCCCOc1ccc(C)cc1-c1ccc(COc2ccc3c(c2)OCC(C)C3CC(=O)O)cc1` (racemic) [Example 40], the EC50 lay within 0.1 to 1 µM. With `C=C1CCOc2cc(OCc3ccccc3)ccc2C1CC(=O)O` (racemic) [Example 43, (R/S)-2-(8-(benzyloxy)-4-methylene-2,3,4,5-tetrahydrobenzo[b]oxepin-5-yl)acetic acid] the figure was 0.1 to 1 µM; with `C=C(c1ccc(-c2ccccc2)cc1)c1ccc2c(c1)CCCC2CC(=O)O` (racemic) [Example 44, (R/S)-[6-(1-Biphenyl-4-yl-vinyl)-1,2,3,4-tetrahydro-naphthalen-1-yl]-acetic acid], 1 to 10 µM. The result for `C=C(c1ccc(Oc2ccccc2)cc1)c1ccc2c(c1)CCCC2CC(=O)O` (racemic) [Example 45, (R/S)-{6-[1-(4-Phenoxy-phenyl)-vinyl]-1,2,3,4-tetrahydro-naphthalen-1-yl}-acetic acid] reads 1 to 10 µM; that for `Cc1cc(Cl)ccc1-c1cccc(COc2ccc3c(c2)C(=O)NC3CC(=O)O)c1` (racemic) [Example 66, (R/S)-(5-(((4′-chloro-2′-methyl-1,1′-biphenyl-3-yl)methyl)oxy)-3-oxo-2,3-dihydro-1H-isoindol-1-yl)acetic acid], 1 to 10 µM; that for `Cc1cc(Cl)ccc1-c1cccc(COc2ccc3c(c2)C(=O)N(C)C3CC(=O)O)c1` (racemic) [Example 67, (R/S)-(5-(((4′-chloro-2′-methyl-1,1′-biphenyl-3-yl)methyl)oxy)-2-methyl-3-oxo-2,3-dihydro-1H-isoindol-1-yl)acetic acid], 0.1 to 1 µM. With `Cc1c(Cl)cccc1-c1cccc(COc2ccc3c(c2)C(=O)NC3CC(=O)O)c1` (racemic) [Example 68] the figure was 1 to 10 µM. Turning to `Cc1c(Cl)cccc1-c1cccc(COc2ccc3c(c2)C(=O)N(C)C3CC(=O)O)c1` (racemic) [Example 69, (R/S)-(5-(((3′-chloro-2′-methyl-1,1′-biphenyl-3-yl)methyl)oxy)-2-methyl-3-oxo-2,3-dihydro-1H-isoindol-1-yl)acetic acid], the EC50 was in the range of 0.1 to 1 µM. `CN1C(=O)c2cc(OCc3cccc(-c4ccc(C(F)(F)F)cc4)c3)ccc2C1CC(=O)O` (racemic) [Example 70, (R/S)-(2-methyl-3-oxo-5-(((4′-(trifluoromethyl)-1,1′-biphenyl-3-yl)methyl)oxy)-2,3-dihydro-1H-isoindol-1-yl)acetic acid]: the concentration for a half-maximal effect (EC50) was in the range of 1 to 10 µM.

As for `O=C(O)CC1c2ccc(OCc3cccc(-c4ccc(C(F)(F)F)cc4)c3)cc2OCc2conc21` (racemic) [Example 71, (R/S)-(7-(((4′-(trifluoromethyl)-1,1′-biphenyl-3-yl)methyl)oxy)-4H,10H-[l]benzoxepino[4,3-c]isoxazol-10-yl)acetic acid], the EC50 was in the range of 1 to 10 µM. The result for `CCOc1ccc(F)c(-c2ccc(COc3ccc4c(c3)CCC(C(=O)O)C4)cc2)c1` (racemic) [Example 72, (R/S)-6-(((5′-(ethoxy)-2′-fluoro-1,1′-biphenyl-4-yl)methyl)oxy)-1,2,3,4-tetrahydro-2-naphthalenecarboxylic acid] reads 1 to 10 µM; that for `CCOc1ccc(F)c(-c2ccc(COc3ccc4c(c3)CCCC4CC(=O)O)cc2)c1` (stereo in doubt) [Example 60, (S)-[6-(5′-Ethoxy-2′-fluoro-biphenyl-4-ylmethoxy)-1,2,3,4-tetrahydro-naphthalen-1-yl]-acetic acid], 1 to 10 µM; that for `CCOc1ccccc1-c1ccc(COc2ccc3c(c2)CCCC3CC(=O)O)cc1` (stereo not drawn) [Example 2, [6-(2′-Ethoxy-biphenyl-4-ylmethoxy)-1,2,3,4-tetrahydro-naphthalen-1-yl]-acetic acid], 0.1 to 1 µM. As for `O=C(O)C[C@@H]1CCCc2cc(OCc3cccc(-c4ccc(C(F)(F)F)cc4)c3)ccc21` [Example 3, [(S)-6(4′-Trifluoromethyl-biphenyl-3-ylmethoxy)-1,2,3,4-tetrahydro-naphthalen-1-yl]-acetic acid], the half-maximal effective concentration (EC50) lay within 0.1 to 1 µM. The result for `CCCCOc1ccc(C)cc1-c1ccc(COc2ccc3c(c2)CCC[C@H]3CC(=O)O)cc1` [Example 4] reads less than 0.1 µM; that for `Cc1ccc(-c2nc(C)c(COc3ccc4c(c3)CCC[C@H]4CC(=O)O)s2)cc1` [Example 5], less than 0.1 µM. With `O=C(O)C[C@H]1CCCc2cc(OCc3cccc(-c4ccc(C(F)(F)F)cc4)c3)ccc21` [Example 6] the figure was 1 to 10 µM. `COc1cccc(-c2ccc(COc3ccc4c(c3)CCCC4CC(=O)O)cc2)c1` (stereo not drawn) [Example 7]: the EC50 is less than 0.1 µM. For `O=C(O)CC1CCCc2cc(OCc3cccc(-c4ccc(C(F)(F)F)cc4)c3)ccc21` (stereo not drawn) [Example 8], the EC50 was in the range of 0.1 to 1 µM. With `COc1ccc(COc2ccc3c(c2)CCCC3CC(=O)O)cc1` (stereo not drawn) [Example 9] the figure was 1 to 10 µM; with `Cc1ccc(-c2nc(C)c(COc3ccc4c(c3)CCCC4CC(=O)O)s2)cc1` (stereo not drawn) [Example 10], 0.1 to 1 µM. The result for `CCOc1ccccc1-c1ccc(COc2ccc3c(c2)CCC3CC(=O)O)cc1` (stereo not drawn) [Example 12] reads 0.1 to 1 µM; that for `COc1cccc(-c2ccc(COc3ccc4c(c3)CCC4CC(=O)O)cc2)c1` (stereo not drawn) [Example 13], 0.1 to 1 µM. With `Cc1ccc(-c2nc(C)c(COc3ccc4c(c3)CCC4CC(=O)O)s2)cc1` (stereo not drawn) [Example 14] the figure was 0.1 to 1 µM. As for `O=C(O)CC1CCc2cc(OCc3cccc(-c4ccc(C(F)(F)F)cc4)c3)ccc21` (stereo not drawn) [Example 15], the EC50 was in the range of 1 to 10 µM. With `CCOc1cccc(-c2ccc(COc3ccc4c(c3)C(CC(=O)O)CCC4)cc2)c1` (stereo not drawn) [Example 16] the figure was 1 to 10 µM; with `Cc1ccc(-c2nc(C)c(COc3ccc4c(c3)C(CC(=O)O)CCC4)s2)cc1` (stereo not drawn) [Example 17], 1 to 10 µM. The result for `CCCCOc1ccc(C)cc1-c1ccc(COc2ccc3c(c2)C(CC(=O)O)CCC3)cc1` (stereo not drawn) [Example 18] reads 1 to 10 µM; that for `CCOc1ccccc1-c1ccc(COc2ccc3c(c2)C(CC(=O)O)CCC3)cc1` (stereo not drawn) [Example 19], 1 to 10 µM. With `O=C(O)CC1CCc2ccc(OCc3cccc(-c4ccc(C(F)(F)F)cc4)c3)cc2C1` (stereo not drawn) [Example 20] the figure was 1 to 10 µM; with `CCCCOc1ccc(C)cc1-c1ccc(COc2ccc3c(c2)CC(CC(=O)O)CC3)cc1` (stereo not drawn) [Example 21], 1 to 10 µM. Turning to `O=C(O)C1CCc2cc(OCCOc3cccc(C(F)(F)F)c3)ccc2C1` (stereo not drawn) [Example 30], the EC50 lay within 1 to 10 µM.

With `O=C(O)C1CCc2cc(OCc3cccc(-c4ccc(C(F)(F)F)cc4)c3)ccc2C1` (stereo not drawn) [Example 31], the concentration for a half-maximal effect (EC50) was in the range of 1 to 10 µM.
